According to patent US20260125359A1, “HETEROARYL COMPOUNDS AS MULTI-TARGET PROTEIN KINASE INHIBITORS” (FUJIAN HAIXI PHARMACEUTICALS CO., LTD., priority 2023, published 2026):

What follows are molecules tested on M-NFS-60 cells (assay: M-NFS-60 cell in vitro assay (CCK, 48 h, M-CSF factor medium)). Conditions: M-NFS-60 cells; read-out: M-NFS-60cellassay IC50.
Assay type: cell-based
Experimental: To determine the inhibitory activity of compounds on M-NFS-60 cells.
• M-NFS-60 cell line (ATCC, Cat. No.: CRL-1838) • RPMI-1640 medium (Gibco, domestic subpackage, Cat. No.: C11875500BT) • Recombinant Mouse CSF1/M-CSF (Sino Biological Inc., Cat. No.: 51112-MNAH) • PAN/Serum (BioTECH, Cat. No.: P30-2602) • Trypsin/0.05% Trypsin-EDTA (Gibco, Cat. No.: 25300-062) • 0.4% Trypan Blue (Sigma, Cat. No.: T8154-20 ml) • Penicillin-Streptomycin (Hyclone, Cat. No.: SV30010) • DMSO (Solarbio, Cat. No.: D8371) • PBS (Solarbio, Cat. No.: P1020) • CCK (AbMole BioScience, Cat. No.: M4839-500Tests)
• 1) M-CSF factor stock solution: take 10 μg of powdered m-CSF factor, add 0.4 ml of saline, formulate 25 ug/ml and store at −80° C. • 2) M-CSF factor (25 ng/ml) medium: • 1640 (Gibco)+10% PAN+100×Penicillin-Streptomycin+100×M-CSF stock solution • 3) Complete medium: • 1640 (Gibco)+10% PAN+100×Penicillin-Streptomycin • 4) Compound preparation: 2-3 mg of the compound was added to DMSO to formulate a 30 mM stock solution, −80° C. refrigerator storage
• 1) Cell resuscitation: the frozen cells in the cryovial were thawed rapidly by shaking in a 37° C. water bath, then 4 mL of medium was added. After mixing evenly, they were centrifuged at 125×g for 5 min, and the supernatant was discarded. The cells were resuspended and transferred to the culture flasks, and were cultured in a 5% CO2 fully saturated humidity incubator. • 2) Cell passaging: M-NFS-60 cells are semi-suspension cells, which were collected directly in a 15 mL centrifuge tube, centrifuged at 125×g for 5 min. and the supernatant was discarded. The cells were resuspended and passaged into new culture flasks at a ratio of 1:5 to 1:10. • 3) After the newly resuscitated cells were passaged 1-2 times for cell stabilization, compound inhibition assays were started when the cells were in the logarithmic growth phase. • (a) Cell collection and counting: the same as the cell passaging step, centrifuge in two tubes, one tube with M-CSF factor medium to resuspend the cells, the other tube with complete medium to resuspend the cells. Take 10 μL of cell suspension in each tube, and count the cells by Tepan blue staining. • (b) Dilute the cell solution according to the concentration of inoculated cells respectively, the concentration of M-NFS-60 cells inoculated with factor was 5.56×10^4 cells/mL, and the concentration of inoculated without factor was 5×10^4 cells/mL. • (c) Seed plate: 384 well plate inoculated with M-NFS-60 cells, 36 uL/well, triplicate wells, the number of inoculated cells was equivalent to 2000 cells/well, set with blank control, factor free negative control, normal control, DMSO control and experimental wells. The cells were placed in a 5% CO2 fully saturated humidity incubator for 4 h. • (d) Sampling compounds: 96 well plates were used for compound preparation. The compound solution prepared in advance was diluted to corresponding gradient concentration with DMSO. An appropriate amount of the diluted solution in the previous step was added to an equal volume of factor containing medium. The 96 well plates were centrifuged at 1000 rpm for 5 min, which played the role of defoaming and spinning down droplets and condensation. Remove the 384 well plate from the incubator, add the diluted compound solution into each well sequentially, 4 μL/well; DMSO wells and normal wells were added with corresponding factor containing medium, 4 μL/well. Then it was put into CO2 incubator for 48 h. • (e) After incubation for 48 h, CCK was added to each well, 4 uL, and the plates were placed in the incubator for another 2 h, and then the OD (optical density) value at 450 nm was measured by microplate reader.
The IC50 values for each test compound were fitted using professional graphing and analysis software.

First: Cc1cccc(C(=O)Nc2c(F)ccc3c2CC[C@@H]3Nc2cncc(-c3cnn(C)c3)c2)c1 (stereo in doubt) [Compound 43, N-(5-fluoro-1-((5-(1-methyl-1H-pyrazol-4-yl)pyridin-3-yl)amino)-2,3-dihydro-1H-inden-4-yl)-3-methylbenzamide]
Second: Cc1cccc(C(=O)Nc2cccc3c2CCC3Nc2cncc(-c3cnn(C)c3)c2)c1 (centres unmarked) [Compound 8, 3-methyl-N-(1-((5-(1-methyl-1H-pyrazol-4-yl)pyridin-3-yl)amino)-2,3-dihydro-1H-inden-4-yl)benzamide]
The IC50 of the first is higher: 200 to 500 nM for the first, less than 50 nM for the second. The second is the more potent here.

Compared with `COc1cccc(C(=O)Nc2cccc3c2CCC3Oc2cc(-c3cnn(C)c3)cnc2N)c1` (centres unmarked) [Compound 1, N-(1-((2-amino-5-(1-methyl-1H-pyrazol-4-yl)pyridin-3-yl)oxy)-2,3-dihydro-1H-inden-4-yl)-3-methoxybenzamide], `COc1cccc(C(=O)Nc2cccc3c2CC[C@H]3Oc2cc(-c3cnn(C)c3)cnc2N)c1` [Compound 3a] is higher in IC50: 50 to 200 nM for the first, greater than 500 nM for the second. The first is the more potent here.

Compared with `COc1cccc(C(=O)Nc2cccc3c2CCC3Oc2cc(Br)cnc2N)c1` (centres unmarked) [Compound 1f, N-(1-((2-amino-5-bromopyridin-3-yl)oxy)-2,3-dihydro-1H-inden-4-yl)-3-methoxybenzamide], `COc1cccc(C(=O)Nc2cccc3c2OCCC3Oc2cc(Br)cnc2N)c1` (centres unmarked) [Compound 2b] is higher in IC50: 50 to 200 nM for the first, greater than 500 nM for the second. The first is the more potent here.

First: COc1cccc(C(=O)Nc2cccc3c2CCCC3Oc2cc(-c3cnn(C)c3)cnc2N)c1 (centres unmarked) [Compound 2a]
Second: COc1cccc(C(=O)Nc2cccc3c2CC[C@@H]3Oc2cc(-c3cnn(C)c3)cnc2N)c1 [Compound 3b]
The IC50 of the first is higher: greater than 500 nM for the first, less than 50 nM for the second.

First: COc1cccc(C(=O)Nc2cccc3c2OCCC3Oc2cc(-c3cnn(C)c3)cnc2N)c1 (centres unmarked) [Compound 2c]
Second: CN(C)Cc1cccc(C(=O)Nc2cccc3c2CC[C@@H]3Oc2cc(-c3cnn(C)c3)cnc2N)c1 [Compound 3j]
The IC50 of the first is lower: 200 to 500 nM for the first, greater than 500 nM for the second. The first is the more potent here.

First: Cn1cc(-c2cnc(N)c(O[C@H]3CCc4c(NC(=O)c5ccc6c(c5)OC(F)(F)O6)cccc43)c2)cn1 [Compound 3c]
Second: Cc1ccc(C(=O)Nc2cccc3c2CC[C@@H]3Oc2cc(-c3cnn(C)c3)cnc2N)cc1C [Compound 3f]
The IC50 of the first is higher: 50 to 200 nM for the first, less than 50 nM for the second.

`Cn1cc(-c2cnc(N)c(O[C@H]3CCc4c(NC(=O)c5csc6ccccc56)cccc43)c2)cn1` [Compound 3d] and `Cn1cc(-c2cnc(N)c(O[C@H]3CCc4c(NC(=O)c5cccc(C6CC6)c5)cccc43)c2)cn1` [Compound 3g] cannot be ordered by IC50: less than 50 nM for the first, less than 50 nM for the second.

Compared with `Cn1cc(-c2cnc(N)c(O[C@H]3CCc4c(NC(=O)c5cccc(C(F)(F)F)c5)cccc43)c2)cn1` [Compound 3e], `Cn1cc(-c2cnc(N)c(O[C@H]3CCc4c(NC(=O)c5cccc(CN6CCCC6)c5)cccc43)c2)cn1` [Compound 3i] is higher in IC50: less than 50 nM for the first, greater than 500 nM for the second. The first is the more potent here.

First: Cn1cc(-c2cnc(N)c(O[C@H]3CCc4c(NC(=O)c5cccc(CN6CCCCC6)c5)cccc43)c2)cn1 [Compound 3h]
Second: Cn1cc(-c2cnc(N)c(O[C@H]3CCc4c(C(=O)Nc5cccc(CN6CCCCC6)c5)cccc43)c2)cn1 [Compound 5b]
The IC50 of the first is higher: greater than 500 nM for the first, 50 to 200 nM for the second.

First: Cn1cc(-c2cnc(N)c(O[C@H]3CCc4c(C(=O)Nc5cccc(CN6CCCC6)c5)cccc43)c2)cn1 [Compound 5c]
Second: CN(C)Cc1cccc(NC(=O)c2cccc3c2CC[C@@H]3Oc2cc(-c3cnn(C)c3)cnc2N)c1 [Compound 5e]
The IC50 of the first is higher: 50 to 200 nM for the first, less than 50 nM for the second.

`CN(C)Cc1ccc(NC(=O)c2cccc3c2CC[C@@H]3Oc2cc(-c3cnn(C)c3)cnc2N)cc1` [Compound 5d] and `Nc1ncc(Cl)cc1O[C@H]1CCc2c(C(=O)Nc3cccc(C4CC4)c3)cccc21` [Compound 7, (S)-1-((2-amino-5-chloropyridin-3-yl)oxy)-N-(3-cyclopropylphenyl)-2,3-dihydro-1H-indene-4-carboxamide] cannot be ordered by IC50: less than 50 nM for the first, less than 50 nM for the second.

`Cc1cc(C(=O)Nc2cccc3c2CC[C@@H]3Nc2cc(-c3cnn(C)c3)cnc2N)ccc1F` [Compound 6, (S)—N-(1-((2-amino-5-(1-methyl-1H-pyrazol-4-yl)pyridin-3-yl)amino)-2,3-dihydro-1H-inden-4-yl)-4-fluoro-3-methylbenzamide] showed an IC50 of 50 to 200 nM.
